This is an account of results in patent US9359311B2, “Substituted aromatic oligomers” (NEUROSCIOS GMBH, priority 2011, dated 2016).

Test [1] deals with PHF-tau doubly-phosphorylated at Thr231 and Ser235. Kind of test: Phosphorylation of Tau in neurites crossing amyloid plaques, AT180 IHC, hAPPSL Tg mice. In kind it is in vivo, mouse. How it is done:
(§1) Vehicle: Phosphate Buffered Saline (PBS; 6.7 mM PO4, 155 mM NaCl, pH=7.3-7.5) (BioWhittaker PBS from Lonza).
Test Item (T.I.): p-FTAA and P9707_003, diluted in vehicle from stock solution in deionized water (10 mg/ml).
(§2) Tg hAPPSL: Transgenic hAPPSL mice over-expressing hAPP(751) under the control of the murine Thy-1 promoter with a C57BL/6xDBA background.
(§3) 48 hAPP Tg mice plus 4 reserves allocated to 4 different treatment groups were treated with either vehicle only (control), p-FTAA or P9707_003. As an additional control, 12 nTg littermates of the hAPPSL mice (plus 1 reserve) were treated with vehicle only. Starting at 6.5 months of age, female hAPPSL mice were treated with vehicle only, p-FTAA (dosage: 1 or 10 mg/kg/day) or P9707_003 (dosage: 10 mg/kg/day) for 90 days. The Test Items (T.I.s) were administered in Vehicle. Compound and vehicle were administered twice daily i.p. for 90 days. Tg hAPPSL mice with a C57BL/6xDBA background and corresponding nTg littermates at an age of 6.5 months (+2 weeks) were randomly assigned to the treatment groups.
Histological evaluations were performed with six randomly chosen cryo-frozen brain hemispheres of treatment groups PBS Control, p-FTAA 1 mg/kg/day, p-FTAA 10 mg/kg/day, and P9707_003 10 mg/kg/day.
15 cryo-sections per level (altogether 5 levels), each 10 μm thick (Leica CM 3050S) were sagittally cut. Brain levels were chosen according to the morphology atlas “The Mouse Brain” from Paxinos and Franklin (2nd edition). The cutting of the five levels started with a random slice, then sampling was continued uniformly and systematically, always retaining 15 slices per level in series and discarding 100 μm in between the levels.
TAU phosphorylation was visualized immunohistochemically using the AT180 antibody. Clone AT180 recognizes PHF-tau doubly-phosphorylated at Thr231 and Ser235.
For determination of amyloid depositions 5 slices (1 from each level) per brain were stained and screened. From each slice five images were captured from 5 defined areas in the brain. The order of these positions reflect the time course of plaque deposition in the APPsl model, which starts in the frontal cortex (P11) at the age of 3 months and then spreads to the medial (P12) and dorsal cortex over age. At six months of age, plaques can be found in the medial cortex (P13), from then plaque load spreads into the hippocampal formation with hot spots in the subiculum (P14) and the dentate gyrus (P15) at the age of nine months.
Mosaic images for plaque load quantification including the whole cortex and hippocampus were recorded on a Zeiss AxioImager.Z1 microscope using high aperture lenses and an AxioVision 4.8 software driven AxioCam MRm (10× lens, 1× optocoupler). Plaques for AT180 quantifcation were imaged with a 20× lens. Detail images for qualitative figures are 40× image stacks collapsed to 2D by the extended depth of field function of AxioVision software.
Descriptive statistical analysis was performed on all evaluated parameters, Kolmogorov Smirnov test were performed to test normal distribution of data. Data in graphs are represented as mean±SEM.

Test [2] deals with T1, Human Aβ38, Aβ40 and Aβ42 (Homo sapiens, UniProt P05067).
T1 construct: from tissue; host or cells: CSF and left brain hemisphere (SDS fraction) of transgenic hAPPSL mice
T1 sequence (P05067 672-713 limits assumed): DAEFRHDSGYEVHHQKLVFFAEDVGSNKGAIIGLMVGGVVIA
Kind of test: Human Aβ38, Aβ40 and Aβ42 in CSF of hAPPSL Tg mice after 90 days treatment (immunosorbent assay). Particulars: twice daily i.p. In kind it is in vivo, mouse. The method, then:
as §1
Test item (T.I.): p-FTAA and P9707_003 diluted in vehicle from stock solution in deionized water (10 mg/ml).
as §2
Human Aβ38, Aβ40 and Aβ42 were determined in homogenates of the left brain hemispheres and in CSF samples of all Tg animals by an immunosorbent assay from Mesoscale Discovery
as §3, with “(±2” for “(+2”
In the brain homogenate SDS fraction and in CSF of each Tg mouse, human Aβ38, Aβ40 and Aβ42 levels were measured with a Aβ-kit from Mesoscale Discovery. Aβ levels were evaluated in comparison to a peptide standard as pg/mg brain (wet weight) or pg/ml CSF.
Descriptive statistical analysis was performed on all evaluated parameters. All data were represented as mean±standard error of mean (SEM). Grubb's test was used to detect outliers. Normality distribution of the values was tested with Kolmogorov Smirnov normality distribution test. Group differences between all Tg groups were calculated by a parametric ANOVA followed by a Bonferroni post test.

On to `O=C(O)Cc1ccsc1-c1ccc(-c2sc(-c3ccc(-c4cc(CC(=O)O)c(-c5ccc(-c6sccc6CC(=O)O)s5)s4)s3)cc2CC(=O)O)s1` [Example 1, 2-(2-{5-[3-(Carboxymethyl)-5-{5-[4-(carboxymethyl)-5-{5-[3-(carboxymethyl)thiophen-2-yl]thiophen-2-yl}thiophen-2-yl]thiophen-2-yl}thiophen-2-yl]thiophen-2-yl}thiophen-3-yl)acetic acid], for which the AT180 load result in test [1] (10 mg P9707_003 treatment, plaque sides 2 and 4) is listed as “significant reduction”. For the same compound, in test [1] (90 days i.p., hAPPSL Tg mice), the “AT180 IR in plaques of younger history of origin (hippocampal formation, subiculum, dentate gyrus)” value is given as “drastically reduced”. Moreover, in test [1] (P9707_003 10 mg/kg/day, 90 days i.p.), the “AT180 load at hippocampal plaques, reduced to” value is “approximately 45%”. Besides, the “reduction of AT180” value in test [1] (P9707_003 10 mg/kg/day, 90 days i.p., positions 4 and 5) is given as “more than 40%”. Also, in test [2] (10 mg/kg/day, female hAPPSL Tg mice, Aβ38, Aβ40, Aβ42, % of vehicle control), the “Mean Aβ levels in CSF, relative to vehicle control (PBS control)” value is given as “about 60%”. Further, the “CSF Aβ levels” value in test [2] (hAPPSL Tg mice, p-FTAA 1 or 10 mg/kg/day, P9707_003 10 mg/kg/day) is given as “decreased”.
